Data: publication PMC6364417, “Kinase inhibitor library screening identifies synergistic drug combinations effective in sensitive and resistant melanoma cells” (Journal of Experimental & Clinical Cancer Research : CR, 2019)

How the values were obtained:
Test in all cases: Kinase inhibitor library screening, PrestoBlue cell viability, 1 or 10 μM, 72 h
[1] = system: IGR37-XP cells (Vemurafenib-resistant); settings: IGR37 XP, 72 h; for Cell viability in kinase inhibitor library screening, IGR37 XP, 1μΜ: in %
IGR37 cells (parental) = settings: IGR37 Parental, 72 h; for Cell viability in kinase inhibitor library screening, IGR37 Parental, 1μΜ / Cell viability in kinase inhibitor library screening, IGR37 Parental, 10μΜ: in %
501Mel cells (parental) = settings: 501Mel Parental, 72 h; for Cell viability in kinase inhibitor library screening, 501Mel Parental, 1μΜ / Cell viability in kinase inhibitor library screening, 501Mel Parental, 10μΜ: in %
Method in brief: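 Two concentrations of every kinase inhibitor were tested on each melanoma line and its resistant counterparts, and cell survival was quantified by PrestoBlue against untreated wells.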

[2] = system: IGR37-GP cells (Dabrafenib-resistant); settings: IGR37 GP, 72 h; for Cell viability in kinase inhibitor library screening, IGR37 GP, 1μΜ: in %
[3] = system: A375-GP cells (Dabrafenib-resistant); settings: A375 GP, 72 h
[4] = system: A375-XP cells (Vemurafenib-resistant); settings: A375 XP, 72 h
[5] = system: 501Mel-GP cells (Dabrafenib-resistant); settings: 501Mel GP, 72 h; for Cell viability in kinase inhibitor library screening, 501Mel GP, 1μΜ / Cell viability in kinase inhibitor library screening, 501Mel GP, 10μΜ: in %
[6] = system: 501Mel-XP cells (Vemurafenib-resistant); settings: 501Mel XP, 72 h; for Cell viability in kinase inhibitor library screening, 501Mel XP, 1μΜ / Cell viability in kinase inhibitor library screening, 501Mel XP, 10μΜ: in %
A375 cells (parental) = settings: A375 Parental, 72 h

CC(C)n1nc(-c2ccc3oc(N)nc3c2)c2c(N)ncnc21 [INK 128]
Cell viability in kinase inhibitor library screening, IGR37 XP, 10μΜ ([1]; 10μΜ): 6.1% | Cell viability in kinase inhibitor library screening, IGR37 XP, 1μΜ [1]: 27.3 | Cell viability in kinase inhibitor library screening, IGR37 Parental, 1μΜ (IGR37 cells (parental)): 22.4 | Cell viability in kinase inhibitor library screening, IGR37 Parental, 10μΜ (IGR37 cells (parental); 10μΜ): 13.5 | Cell viability in kinase inhibitor library screening, 501Mel Parental, 1μΜ (501Mel cells (parental); 1μΜ): 15.4 | Cell viability in kinase inhibitor library screening, 501Mel Parental, 10μΜ (501Mel cells (parental); 10μΜ): 5.9 | Cell viability in kinase inhibitor library screening, IGR37 GP, 10μΜ [2]: 16.8% | Cell viability in kinase inhibitor library screening, IGR37 GP, 1μΜ ([2]; 1μΜ): 44.7 | Cell viability in kinase inhibitor library screening, A375 GP, 1μΜ ([3]; 1μΜ): 21.6 | Cell viability in kinase inhibitor library screening, A375 GP, 10μΜ ([3]; 10μΜ): 13.0 | Cell viability in kinase inhibitor library screening, A375 XP, 1μΜ [4]: 19.9 | Cell viability in kinase inhibitor library screening, A375 XP, 10μΜ ([4]; 10μΜ): 12.7 | Cell viability in kinase inhibitor library screening, 501Mel GP, 1μΜ ([5]; 1μΜ): 17.2 | Cell viability in kinase inhibitor library screening, 501Mel GP, 10μΜ ([5]; 10μΜ): 6.6 | Cell viability in kinase inhibitor library screening, 501Mel XP, 1μΜ ([6]; 1μΜ): 11.6 | Cell viability in kinase inhibitor library screening, 501Mel XP, 10μΜ ([6]; 10μΜ): 2.4 | Cell viability in kinase inhibitor library screening, A375 Parental, 10μΜ (A375 cells (parental); 10μΜ): 13.5 | Cell viability in kinase inhibitor library screening, A375 Parental, 1μΜ (A375 cells (parental)): 19.9

C[C@@H]1CN(CC(=O)Nc2ccc3c(c2)Cc2cccc(-c4cc(=O)cc(N5CCOCC5)o4)c2S3)C[C@H](C)O1 [KU-60019]
cell viability (kinase inhibitor library screening) ([1]; 10μΜ): 34.1% | cell viability (kinase inhibitor library screening) (IGR37 cells (parental); 10μΜ): 97.6% | cell viability (kinase inhibitor library screening) (501Mel cells (parental); 1μΜ): 90.0% | cell viability (kinase inhibitor library screening) (501Mel cells (parental); 10μΜ): 71.5% | cell viability (kinase inhibitor library screening) ([2]; 1μΜ): 92.9% | cell viability (kinase inhibitor library screening) ([3]; 1μΜ): 100.5% | cell viability (kinase inhibitor library screening) ([3]; 10μΜ): 68.6% | cell viability (kinase inhibitor library screening) ([4]; 10μΜ): 74.4% | cell viability (kinase inhibitor library screening) ([5]; 1μΜ): 103.1% | cell viability (kinase inhibitor library screening) ([5]; 10μΜ): 54.1% | cell viability (kinase inhibitor library screening) ([6]; 1μΜ): 91.4% | cell viability (kinase inhibitor library screening) ([6]; 10μΜ): 36.5% | cell viability (kinase inhibitor library screening) (A375 cells (parental); 10μΜ): 78.4%

O=C1NC(=O)/C(=C/c2ccc(-c3ccc(F)cc3O)o2)S1 [AS-252424]
Cell viability in kinase inhibitor library screening, IGR37 XP, 10μΜ ([1]; 10μΜ): 42.3% | Cell viability in kinase inhibitor library screening, IGR37 XP, 1μΜ [1]: 93.7 | Cell viability in kinase inhibitor library screening, IGR37 Parental, 1μΜ (IGR37 cells (parental)): 103.0 | Cell viability in kinase inhibitor library screening, IGR37 Parental, 10μΜ (IGR37 cells (parental); 10μΜ): 94.5 | Cell viability in kinase inhibitor library screening, 501Mel Parental, 1μΜ (501Mel cells (parental); 1μΜ): 112.3 | Cell viability in kinase inhibitor library screening, 501Mel Parental, 10μΜ (501Mel cells (parental); 10μΜ): 97.9 | Cell viability in kinase inhibitor library screening, IGR37 GP, 10μΜ [2]: 75.1% | Cell viability in kinase inhibitor library screening, A375 GP, 1μΜ ([3]; 1μΜ): 107.9 | Cell viability in kinase inhibitor library screening, A375 GP, 10μΜ ([3]; 10μΜ): 90.3 | Cell viability in kinase inhibitor library screening, A375 XP, 1μΜ [4]: 115.1 | Cell viability in kinase inhibitor library screening, A375 XP, 10μΜ ([4]; 10μΜ): 96.7 | Cell viability in kinase inhibitor library screening, 501Mel GP, 1μΜ ([5]; 1μΜ): 105.9 | Cell viability in kinase inhibitor library screening, 501Mel GP, 10μΜ ([5]; 10μΜ): 85.7 | Cell viability in kinase inhibitor library screening, 501Mel XP, 1μΜ ([6]; 1μΜ): 109.3 | Cell viability in kinase inhibitor library screening, 501Mel XP, 10μΜ ([6]; 10μΜ): 84.7 | Cell viability in kinase inhibitor library screening, A375 Parental, 10μΜ (A375 cells (parental); 10μΜ): 82.9 | Cell viability in kinase inhibitor library screening, A375 Parental, 1μΜ (A375 cells (parental)): 107.2

COC[C@H]1OC(=O)c2coc3c2[C@@]1(C)C1=C(C3=O)[C@@H]2CCC(=O)[C@@]2(C)C[C@H]1OC(C)=O [Wortmannin]
Cell viability in kinase inhibitor library screening, IGR37 XP, 10μΜ ([1]; 10μΜ): 26.8% | Cell viability in kinase inhibitor library screening, IGR37 XP, 1μΜ [1]: 96.4 | Cell viability in kinase inhibitor library screening, IGR37 Parental, 1μΜ (IGR37 cells (parental)): 99.5 | Cell viability in kinase inhibitor library screening, IGR37 Parental, 10μΜ (IGR37 cells (parental); 10μΜ): 76.3 | Cell viability in kinase inhibitor library screening, 501Mel Parental, 10μΜ (501Mel cells (parental); 10μΜ): 57.2 | Cell viability in kinase inhibitor library screening, IGR37 GP, 10μΜ [2]: 22.9% | Cell viability in kinase inhibitor library screening, IGR37 GP, 1μΜ ([2]; 1μΜ): 97.7 | Cell viability in kinase inhibitor library screening, A375 GP, 1μΜ ([3]; 1μΜ): 103.2 | Cell viability in kinase inhibitor library screening, A375 GP, 10μΜ ([3]; 10μΜ): 72.0 | Cell viability in kinase inhibitor library screening, A375 XP, 10μΜ ([4]; 10μΜ): 67.6 | Cell viability in kinase inhibitor library screening, 501Mel GP, 1μΜ ([5]; 1μΜ): 95.9 | Cell viability in kinase inhibitor library screening, 501Mel GP, 10μΜ ([5]; 10μΜ): 51.6 | Cell viability in kinase inhibitor library screening, 501Mel XP, 1μΜ ([6]; 1μΜ): 91.1 | Cell viability in kinase inhibitor library screening, 501Mel XP, 10μΜ ([6]; 10μΜ): 23.3 | Cell viability in kinase inhibitor library screening, A375 Parental, 10μΜ (A375 cells (parental); 10μΜ): 77.1 | Cell viability in kinase inhibitor library screening, A375 Parental, 1μΜ (A375 cells (parental)): 109.1

c1cncc(CN2CCC(n3ncc4c(N5CCOCC5)nc(-c5ccc6[nH]ccc6c5)nc43)CC2)c1 [WAY-600]
Cell viability in kinase inhibitor library screening, IGR37 XP, 10μΜ ([1]; 10μΜ): 4.5% | Cell viability in kinase inhibitor library screening, IGR37 XP, 1μΜ [1]: 84.1 | Cell viability in kinase inhibitor library screening, IGR37 Parental, 1μΜ (IGR37 cells (parental)): 93.5 | Cell viability in kinase inhibitor library screening, IGR37 Parental, 10μΜ (IGR37 cells (parental); 10μΜ): 26.3 | Cell viability in kinase inhibitor library screening, 501Mel Parental, 1μΜ (501Mel cells (parental); 1μΜ): 86.8 | Cell viability in kinase inhibitor library screening, 501Mel Parental, 10μΜ (501Mel cells (parental); 10μΜ): 3.0 | Cell viability in kinase inhibitor library screening, IGR37 GP, 10μΜ [2]: 18.4% | Cell viability in kinase inhibitor library screening, IGR37 GP, 1μΜ ([2]; 1μΜ): 95.3 | Cell viability in kinase inhibitor library screening, A375 GP, 1μΜ ([3]; 1μΜ): 82.4 | Cell viability in kinase inhibitor library screening, A375 GP, 10μΜ ([3]; 10μΜ): 21.9 | Cell viability in kinase inhibitor library screening, A375 XP, 1μΜ [4]: 76.7 | Cell viability in kinase inhibitor library screening, A375 XP, 10μΜ ([4]; 10μΜ): 16.9 | Cell viability in kinase inhibitor library screening, 501Mel GP, 1μΜ ([5]; 1μΜ): 72.3 | Cell viability in kinase inhibitor library screening, 501Mel GP, 10μΜ ([5]; 10μΜ): 4.3 | Cell viability in kinase inhibitor library screening, 501Mel XP, 1μΜ ([6]; 1μΜ): 56.9 | Cell viability in kinase inhibitor library screening, 501Mel XP, 10μΜ ([6]; 10μΜ): 1.0 | Cell viability in kinase inhibitor library screening, A375 Parental, 10μΜ (A375 cells (parental); 10μΜ): 22.3 | Cell viability in kinase inhibitor library screening, A375 Parental, 1μΜ (A375 cells (parental)): 84.4

CC[C@@H]1C(=O)N(C)c2cnc(Nc3ccc(C(=O)N[C@H]4CC[C@H](N5CCN(CC6CC6)CC5)CC4)cc3OC)nc2N1C(C)C [BI6727 (Volasertib)]
Cell viability in kinase inhibitor library screening, IGR37 XP, 10μΜ ([1]; 10μΜ): 2.7% | Cell viability in kinase inhibitor library screening, IGR37 XP, 1μΜ [1]: 65.8 | Cell viability in kinase inhibitor library screening, IGR37 Parental, 1μΜ (IGR37 cells (parental)): 36.2 | Cell viability in kinase inhibitor library screening, IGR37 Parental, 10μΜ (IGR37 cells (parental); 10μΜ): 43.0 | Cell viability in kinase inhibitor library screening, 501Mel Parental, 1μΜ (501Mel cells (parental); 1μΜ): 63.2 | Cell viability in kinase inhibitor library screening, 501Mel Parental, 10μΜ (501Mel cells (parental); 10μΜ): 1.3 | Cell viability in kinase inhibitor library screening, IGR37 GP, 10μΜ [2]: 8.8% | Cell viability in kinase inhibitor library screening, IGR37 GP, 1μΜ ([2]; 1μΜ): 75.9 | Cell viability in kinase inhibitor library screening, A375 GP, 1μΜ ([3]; 1μΜ): 22.8 | Cell viability in kinase inhibitor library screening, A375 GP, 10μΜ ([3]; 10μΜ): 28.0 | Cell viability in kinase inhibitor library screening, A375 XP, 1μΜ [4]: 37.1 | Cell viability in kinase inhibitor library screening, A375 XP, 10μΜ ([4]; 10μΜ): 16.8 | Cell viability in kinase inhibitor library screening, 501Mel GP, 1μΜ ([5]; 1μΜ): 26.5 | Cell viability in kinase inhibitor library screening, 501Mel GP, 10μΜ ([5]; 10μΜ): 0.363 | Cell viability in kinase inhibitor library screening, 501Mel XP, 1μΜ ([6]; 1μΜ): 9.9 | Cell viability in kinase inhibitor library screening, 501Mel XP, 10μΜ ([6]; 10μΜ): 0.4 | Cell viability in kinase inhibitor library screening, A375 Parental, 10μΜ (A375 cells (parental); 10μΜ): 29.8 | Cell viability in kinase inhibitor library screening, A375 Parental, 1μΜ (A375 cells (parental)): 21.7
